Assays:
TK-10 [1] = test: Cytotoxicity against human TK10 cells assessed as cell growth at 0.01 uM after 48 hrs by sulforhodamine B assay relative to control; type: functional; details: TK-10, 48 h, read-out: Activity
HT-29 = test: Cytotoxicity against human HT-29 cells assessed as cell growth at 10 uM after 48 hrs by sulforhodamine B assay relative to control; type: functional; details: HT-29, 48 h, read-out: Activity
RXF 393 [2] = test: Cytotoxicity against human RXF393 cells assessed as cell growth at 0.1 uM after 48 hrs by sulforhodamine B assay relative to control; type: functional; details: RXF 393, 48 h, read-out: Activity
UACC-257 = test: Cytotoxicity against human UACC257 cells assessed as growth inhibition after 48 hrs by sulforhodamine B assay; type: functional; details: UACC-257, 48 h
K562 = test: Cytotoxicity against human K562 cells assessed as cell growth at 1 uM after 48 hrs by sulforhodamine B assay relative to control; type: functional; details: K562, 48 h, read-out: Activity
Malme-3M = test: Cytotoxicity against human MALME-3M cells assessed as growth inhibition after 48 hrs by sulforhodamine B assay; type: functional
U-251 [3] = test: Cytotoxicity against human U251 cells assessed as cell growth at 1 uM after 48 hrs by sulforhodamine B assay relative to control; type: functional; details: U-251, 48 h, read-out: Activity
SK-MEL-28 [4] = test: Cytotoxicity against human SK-MEL-28 cells assessed as cell growth at 0.01 uM after 48 hrs by sulforhodamine B assay relative to control; type: functional; details: SK-MEL-28, 48 h, read-out: Activity
MOLT-4 = test: Cytotoxicity against human MOLT4 cells assessed as cell growth at 1 uM after 48 hrs by sulforhodamine B assay relative to control; type: functional; details: MOLT-4, 48 h, read-out: Activity
BT-549 [5] = test: Cytotoxicity against human BT549 cells assessed as cell growth at 100 uM after 48 hrs by sulforhodamine B assay relative to control; type: functional; details: BT-549, 48 h, read-out: Activity
MDA-MB-435 = test: Cytotoxicity against human MDA-MB-435 cells assessed as cell growth at 1 uM after 48 hrs by sulforhodamine B assay relative to control; type: functional; details: MDA-MB-435, 48 h, read-out: Activity
MDA-MB-231 [6] = test: Cytotoxicity against human MDA-MB-231 cells assessed as cell growth at 0.01 uM after 48 hrs by sulforhodamine B assay relative to control; type: functional; details: MDA-MB-231, 48 h, read-out: Activity
RXF 393 [7] = test: Cytotoxicity against human RXF393 cells assessed as cell growth at 100 uM after 48 hrs by sulforhodamine B assay relative to control; type: functional; details: RXF 393, 48 h, read-out: Activity
UO-31 = test: Cytotoxicity against human UO31 cells assessed as growth inhibition after 48 hrs by sulforhodamine B assay; type: functional; details: UO-31, 48 h
TK-10 [8] = test: Cytotoxicity against human TK10 cells assessed as cell growth at 0.1 uM after 48 hrs by sulforhodamine B assay relative to control; type: functional; details: TK-10, 48 h, read-out: Activity
A549 = test: Cytotoxicity against human A549/ATCC cells assessed as cell growth at 0.1 uM after 48 hrs by sulforhodamine B assay relative to control; type: functional; details: A549, 48 h, read-out: Activity
SK-MEL-28 [9] = test: Cytotoxicity against human SK-MEL-28 cells assessed as cell growth at 0.1 uM after 48 hrs by sulforhodamine B assay relative to control; type: functional; details: SK-MEL-28, 48 h, read-out: Activity
HL-60(TB) = test: Cytotoxicity against human HL-60(TB) cells assessed as cell growth at 1 uM after 48 hrs by sulforhodamine B assay relative to control; type: functional; details: HL-60, 48 h, read-out: Activity
U-251 [10] = test: Cytotoxicity against human U251 cells assessed as cell growth at 0.01 uM after 48 hrs by sulforhodamine B assay relative to control; type: functional; details: U-251, 48 h, read-out: Activity
Hs-578T = test: Cytotoxicity against human Hs 578T cells assessed as cell growth at 0.01 uM after 48 hrs by sulforhodamine B assay relative to control; type: functional; details: read-out: Activity
OVCAR-4 = test: Cytotoxicity against human OVCAR4 cells assessed as cell growth at 10 uM after 48 hrs by sulforhodamine B assay relative to control; type: functional; details: OVCAR-4, 48 h, read-out: Activity
SN12C [11] = test: Cytotoxicity against human SN12C cells assessed as cell growth at 10 uM after 48 hrs by sulforhodamine B assay relative to control; type: functional; details: read-out: Activity
MDA-MB-468 = test: Cytotoxicity against human MDA-MB-468 cells assessed as cell growth at 0.01 uM after 48 hrs by sulforhodamine B assay relative to control; type: functional; details: MDA-MB-468, 48 h, read-out: Activity
CCRF-CEM [12] = test: Cytotoxicity against human CCRF-CEM cells assessed as cell growth at 1 uM after 48 hrs by sulforhodamine B assay relative to control; type: functional; details: read-out: Activity
BT-549 [13] = test: Cytotoxicity against human BT549 cells assessed as cell growth at 0.01 uM after 48 hrs by sulforhodamine B assay relative to control; type: functional; details: BT-549, 48 h, read-out: Activity
NCI-H322M = test: Cytotoxicity against human NCI-H322M cells assessed as growth inhibition after 48 hrs by sulforhodamine B assay; type: functional
SN12C [14] = test: Cytotoxicity against human SN12C cells assessed as cell growth at 0.1 uM after 48 hrs by sulforhodamine B assay relative to control; type: functional; details: read-out: Activity
A498 = test: Cytotoxicity against human A498 cells assessed as cell growth at 10 uM after 48 hrs by sulforhodamine B assay relative to control; type: functional; details: A498, 48 h, read-out: Activity
U-251 [15] = test: Cytotoxicity against human U251 cells assessed as cell growth at 10 uM after 48 hrs by sulforhodamine B assay relative to control; type: functional; details: U-251, 48 h, read-out: Activity
SR [16] = test: Cytotoxicity against human SR cells assessed as cell growth at 0.01 uM after 48 hrs by sulforhodamine B assay relative to control; type: functional; details: read-out: Activity
TK-10 [17] = test: Cytotoxicity against human TK10 cells assessed as cell growth at 10 uM after 48 hrs by sulforhodamine B assay relative to control; type: functional; details: TK-10, 48 h, read-out: Activity
SK-MEL-28 [18] = test: Cytotoxicity against human SK-MEL-28 cells assessed as cell growth at 1 uM after 48 hrs by sulforhodamine B assay relative to control; type: functional; details: SK-MEL-28, 48 h, read-out: Activity
CCRF-CEM [19] = test: Cytotoxicity against human CCRF-CEM cells assessed as cell growth at 0.01 uM after 48 hrs by sulforhodamine B assay relative to control; type: functional; details: read-out: Activity
SNB-19 = test: Cytotoxicity against human SNB19 cells assessed as cell growth at 10 uM after 48 hrs by sulforhodamine B assay relative to control; type: functional; details: SNB-19, 48 h, read-out: Activity
MDA-MB-231 [20] = test: Cytotoxicity against human MDA-MB-231 cells assessed as growth inhibition after 48 hrs by MTT assay; type: functional, cell-based; details: MDA-MB-231, 48 h
M14 = test: Cytotoxicity against human M14 cells assessed as cell growth at 100 uM after 48 hrs by sulforhodamine B assay relative to control; type: functional; details: M14, 48 h, read-out: Activity
SR [21] = test: Cytotoxicity against human SR cells assessed as growth inhibition after 48 hrs by sulforhodamine B assay; type: functional
[22] = read-out: LC50 (the source's name)

Question: With `COc1cc(-c2cc(/C=C/C(=O)c3ccc(F)c(F)c3)[nH]n2)cc(OC)c1OC` as the compound, how does the growth at 0.01 µM (TK-10 [1]) read?
Answer: 82%

Question: What about the growth at 10 µM (HT-29) of the same compound?
Answer: -24%

Question: And the growth at 0.1 µM (RXF 393 [2])?
Answer: 96%

Question: And the LC50 (UACC-257)?
Answer: > 100 µM

Question: What about the TGI (UACC-257) of the same compound?
Answer: 6.28 µM

Question: And the growth at 1 µM (K562)?
Answer: 102%

Question: What about the LC50 (Malme-3M) of the same compound?
Answer: > 100 µM

Question: What about the TGI (Malme-3M) of the same compound?
Answer: 9.4 µM

Question: What about the growth at 1 µM (U-251 [3]) of the same compound?
Answer: 87%

Question: What about the growth at 0.01 µM (SK-MEL-28 [4]) of the same compound?
Answer: 102%

Question: What about the growth at 1 µM (MOLT-4) of the same compound?
Answer: 91%

Question: And the growth at 100 µM (BT-549 [5])?
Answer: -58%

Question: What about the growth at 1 µM (MDA-MB-435) of the same compound?
Answer: 88%

Question: What about the growth at 0.01 µM (MDA-MB-231 [6]) of the same compound?
Answer: 94%

Question: And the growth at 100 µM (RXF 393 [7])?
Answer: -61%

Question: What about the LC50 (UO-31) of the same compound?
Answer: > 100 µM

Question: What about the TGI (UO-31) of the same compound?
Answer: 14.2 µM

Question: What about the growth at 0.1 µM (TK-10 [8]) of the same compound?
Answer: 88%

Question: And the growth at 0.1 µM (A549)?
Answer: 98%

Question: What about the growth at 0.1 µM (SK-MEL-28 [9]) of the same compound?
Answer: 102%

Question: What about the growth at 1 µM (HL-60(TB)) of the same compound?
Answer: 101%

Question: And the growth at 0.01 µM (U-251 [10])?
Answer: 97%

Question: What about the growth at 0.01 µM (Hs-578T) of the same compound?
Answer: 98%

Question: What about the growth at 10 µM (OVCAR-4) of the same compound?
Answer: 17%

Question: And the growth at 10 µM (SN12C [11])?
Answer: 15%

Question: What about the growth at 0.01 µM (MDA-MB-468) of the same compound?
Answer: 90%

Question: What about the growth at 1 µM (CCRF-CEM [12]) of the same compound?
Answer: 91%

Question: And the growth at 0.01 µM (BT-549 [13])?
Answer: 101%

Question: What about the TGI (NCI-H322M) of the same compound?
Answer: > 100 µM

Question: And the CC50 (NCI-H322M; [22])?
Answer: > 100 µM

Question: And the growth at 0.1 µM (SN12C [14])?
Answer: 94%

Question: What about the growth at 10 µM (A498) of the same compound?
Answer: -14%

Question: And the growth at 10 µM (U-251 [15])?
Answer: 7%

Question: And the growth at 0.01 µM (SR [16])?
Answer: 100%

Question: What about the growth at 10 µM (TK-10 [17]) of the same compound?
Answer: -13%

Question: What about the growth at 1 µM (SK-MEL-28 [18]) of the same compound?
Answer: 98%

Question: And the growth at 0.01 µM (CCRF-CEM [19])?
Answer: 99%

Question: What about the growth at 10 µM (SNB-19) of the same compound?
Answer: 25%

Question: What about the IC50 (MDA-MB-231 [20]) of the same compound?
Answer: 1.5 µM

Question: And the growth at 100 µM (M14)?
Answer: -38%

Question: And the TGI (SR [21])?
Answer: > 100 µM

Question: And the CC50 (SR [21]; [22])?
Answer: > 100 µM
